Measurements reported in patent publication US20240209053A1 (Protagonist Therapeutics, Inc., priority 2021, published 2024).
Numbered stars: 1 amine (or outer) side, 2 acyl side, 3 side chain; on linkers, the order of the positions; unused ones are H or OH. Bridge positions count the residues as written; N and C are the ends. Square brackets hold non-standard residues; d marks the D form. Side chains are listed from the residue outwards. Peptide text beside a SMILES is read from it. * marks the point of attachment. Nle(6-ylidene) = O=C([C@H](CCCC=[*:3])N[*:1])[*:2]; Dip = N[C@H](C(=O)O)C(c1ccccc1)c1ccccc1; Hag = O=C([C@H](CCC=[*:3])N[*:1])[*:2]; Palmitoyl = CCCCCCCCCCCCCCCC(=O)*; tBuAla = CC(C)(C)C[C@H](N)C(=O)O; β3hF = N[C@H](CC(=O)O)Cc1ccccc1; AllylGly = C=CC[C@H](N)C(=O)O; Isovaleryl = CC(C)CC(=O)*; Ahx = NCCCCCC(=O)O

Target: T1, human ferroportin (SLC40A1) (Homo sapiens, UniProt Q9NP59)
T1 sequence (Q9NP59 1-571): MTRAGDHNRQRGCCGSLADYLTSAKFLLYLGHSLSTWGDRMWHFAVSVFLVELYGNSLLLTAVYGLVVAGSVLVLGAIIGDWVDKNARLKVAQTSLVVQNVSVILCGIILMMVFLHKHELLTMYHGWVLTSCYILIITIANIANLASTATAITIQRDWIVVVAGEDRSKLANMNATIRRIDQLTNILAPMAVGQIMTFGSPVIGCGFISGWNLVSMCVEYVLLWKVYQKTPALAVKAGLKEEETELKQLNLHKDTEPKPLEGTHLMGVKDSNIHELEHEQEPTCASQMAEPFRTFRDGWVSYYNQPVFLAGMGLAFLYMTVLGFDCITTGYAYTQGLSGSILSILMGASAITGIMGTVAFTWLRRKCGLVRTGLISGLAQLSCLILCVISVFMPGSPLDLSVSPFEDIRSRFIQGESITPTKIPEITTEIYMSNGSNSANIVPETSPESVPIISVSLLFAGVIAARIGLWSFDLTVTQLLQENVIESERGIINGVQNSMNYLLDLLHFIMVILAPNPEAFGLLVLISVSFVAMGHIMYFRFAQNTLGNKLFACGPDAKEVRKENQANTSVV
Assay: FPN activity assay: internalization/degradation of ferroportin-GFP in stably transfected HEK293 cells (decrease in GFP fluorescence)
Type: cell-based
Details: compound incubated at least 18 hours
Description: Peptide analogues were tested in vitro for induction of internalization of the human ferroportin protein. Following internalization, the ferroporin protein is degraded. The assay used (FPN activity assay) measures a decrease in fluorescence of the receptor. The cDNA encoding the human ferroportin (SLC40A1) was cloned from a cDNA clone from Origene (NM_014585). The DNA encoding the ferroportin was amplified by PCR using primers also encoding terminal restriction sites for subcloning, but without the termination codon. The ferroportin receptor was subcloned into a mammalian GFP expression vector containing a neomycin (G418) resistance marker in such that the reading frame of the ferroportin was fused in frame with the GFP protein. The fidelity of the DNA encoding the protein was confirmed by DNA sequencing. HEK293 cells were used for transfection of the ferroportin-GFP receptor expression plasmid. The cells were grown according to standard protocol in growth medium and transfected with the plasmids using Lipofectamine (manufacturer's protocol, Invitrogen). The cells stably expressing ferroportin-GFP were selected using G418 in the growth medium (in that only cells that have taken up and incorporated the cDNA expression plasmid survive) and sorted several times on a Cytomation MoFloTM cell sorter to obtain the GFP-positive cells (488 nm/530 nm). The cells were propagated and frozen in aliquots. […] Compound was added to desired final concentration for at least 18 hours in the incubator. […] Compound was added to desired final concentration for at least 18 hours but no more than 24 hours in the incubator. […] The “RI” in RI-Mini-Hepcidin refers to Retro Inverse. A retro inverse peptide is a peptide with a reversed sequence in all D amino acids. An example is that […] becomes […]. The EC50 of these reference compounds for ferroportin internalization/degradation was determined according to the FPN activity assay described above. These peptides served as control standards.

SMILES	IC50 [nM]
CCCCCCCCCCCCCCCC(=O)NCCCCCC(=O)NCCCC[C@H](NC(=O)C[C@H](Cc1ccccc1)NC(=O)[C@@H]1CCC=CCC[C@H](NC(=O)CC(C)C)C(=O)N[C@@H]([C@@H](C)O)C(=O)N[C@@H](Cc2c[nH]cn2)C(=O)N[C@@H](C(c2ccccc2)c2ccccc2)C(=O)N2CCC[C@H]2C(=O)N1)C(N)=O (single isomer, unassigned) [Compd 20]	> 500
CCCCCCCCCCCCCCCC(=O)NCCCCCC(=O)NCCCC[C@H](NC(=O)C[C@H](Cc1ccccc1)NC(=O)[C@@H](CCCCN)NC(=O)[C@@H](NC(=O)[C@@H]1CCC=CC[C@H](NC(=O)[C@H](Cc2c[nH]cn2)NC(=O)[C@@H](NC(=O)[C@H](CCC(=O)O)NC(=O)CC(C)C)[C@@H](C)O)C(=O)N2CCC[C@H]2C(=O)N1)[C@@H](C)CC)C(=O)N[C@H](CCCCN)C(N)=O [Compd 4] (Isovaleryl-ETH[AllylGly]P[Hag]I[dK][β3hF]K([Ahx-Palmitoyl])[dK]-NH2; staple 4-6)	> 500
CCCCCCCCCCCCCCCC(=O)NCCCCCC(=O)NCCCC[C@H](NC(=O)C[C@H](Cc1ccccc1)NC(=O)[C@@H](CCCCN)NC(=O)[C@@H](NC(=O)[C@@H]1CCC=CCC[C@H](NC(=O)[C@H](Cc2c[nH]cn2)NC(=O)[C@@H](NC(=O)[C@H](CCC(=O)O)NC(=O)CC(C)C)[C@@H](C)O)C(=O)N2CCC[C@H]2C(=O)N1)[C@@H](C)CC)C(=O)N[C@H](CCCCN)C(N)=O [Compd 5] (Isovaleryl-ETH[Hag]P[Hag]I[dK][β3hF]K([Ahx-Palmitoyl])[dK]-NH2; staple 4-6)	> 500
CCCCCCCCCCCCCCCC(=O)NCCCCCC(=O)NCCCC[C@H](NC(=O)C[C@H](Cc1ccccc1)NC(=O)[C@@H](CCCCN)NC(=O)[C@@H](NC(=O)[C@@H]1CCCCC[C@H](NC(=O)[C@H](Cc2c[nH]cn2)NC(=O)[C@@H](NC(=O)[C@H](CCC(=O)O)NC(=O)CC(C)C)[C@@H](C)O)C(=O)N2CCC[C@H]2C(=O)N1)[C@@H](C)CC)C(=O)N[C@H](CCCCN)C(N)=O [Compd 7]	> 500
CCCCCCCCCCCCCCCC(=O)NCCCCCC(=O)NCCCC[C@H](NC(=O)C[C@H](Cc1ccccc1)NC(=O)[C@@H](CCCCN)NC(=O)[C@@H](NC(=O)[C@@H]1CCC=CCC[C@H](NC(=O)[C@@H](NC(=O)[C@H](Cc2c[nH]cn2)NC(=O)[C@@H](NC(=O)[C@H](CCC(=O)O)NC(=O)CC(C)C)[C@@H](C)O)C(c2ccccc2)c2ccccc2)C(=O)N1)[C@@H](C)CC)C(=O)N[C@H](CCCCN)C(N)=O [Compd 11]	> 500
CCCCCCCCCCCCCCCC(=O)NCCCCCC(=O)NCCCC[C@H](NC(=O)C[C@H](Cc1ccccc1)NC(=O)[C@@H]1CCC=CCC[C@H](NC(=O)CC(C)C)C(=O)N[C@@H]([C@@H](C)O)C(=O)N[C@@H](Cc2c[nH]cn2)C(=O)N[C@@H](C(c2ccccc2)c2ccccc2)C(=O)N2CCC[C@H]2C(=O)N[C@@H]([C@@H](C)CC)C(=O)N1)C(N)=O [Compd 19] (Isovaleryl-[Hag]TH[Dip]PI[Hag][β3hF]K([Ahx-Palmitoyl])-NH2; staple 1-7)	> 500
CCCCCCCCCCCCCCCC(=O)NCCCCCC(=O)NCCCC[C@H](NC(=O)[C@@H]1CCC=CCC[C@H](NC(=O)CC(C)C)C(=O)N[C@@H]([C@@H](C)O)C(=O)N[C@@H](Cc2c[nH]cn2)C(=O)N[C@@H](C(c2ccccc2)c2ccccc2)C(=O)N2CCC[C@H]2C(=O)N1)C(N)=O [Compd 21] (Isovaleryl-[Hag]TH[Dip]P[Hag]K([Ahx-Palmitoyl])-NH2; staple 1-6)	> 500
CCCCCCCCCCCCCCCC(=O)NCCCCCC(=O)NCCCC[C@@H]1NC(=O)[C@@H]2CCCN2C(=O)[C@H](C(c2ccccc2)c2ccccc2)NC(=O)[C@H](Cc2c[nH]cn2)NC(=O)[C@H]([C@@H](C)O)NC(=O)[C@@H](NC(=O)CC(C)C)CCCC=CCCC[C@@H](C(=O)N[C@H](CC(=O)N[C@H](CCCCN)C(N)=O)Cc2ccccc2)NC1=O [Compd 35] (Isovaleryl-[Nle(6-ylidene)]TH[Dip]PK([Ahx-Palmitoyl])[Nle(6-ylidene)][β3hF][dK]-NH2; staple 1-7)	> 500

Continued, values first:

IC50 [nM]	SMILES
> 500	CCCCCCCCCCCCCCCC(=O)NCCCCCC(=O)NCCCC[C@@H]1NC(=O)[C@@H]2CCCN2C(=O)[C@H](C(c2ccccc2)c2ccccc2)NC(=O)[C@H](Cc2c[nH]cn2)NC(=O)[C@H]([C@@H](C)O)NC(=O)[C@@H](NC(=O)CC(C)C)CCC=CCC[C@@H](C(=O)N[C@H](CC(=O)N[C@H](CCCCN)C(N)=O)Cc2ccccc2)NC1=O (single isomer, unassigned) [Compd 38]
100 to 500	CCCCCCCCCCCCCCCC(=O)NCCCCCC(=O)NCCCC[C@@H]1NC(=O)[C@H](C)NC(=O)[C@@H]2CCCN2C(=O)[C@H](C(c2ccccc2)c2ccccc2)NC(=O)[C@H](Cc2c[nH]cn2)NC(=O)[C@H]([C@@H](C)O)NC(=O)[C@@H](NC(=O)CC(C)C)CCC=CCC[C@@H](C(=O)N[C@H](CC(=O)N[C@H](CCCCN)C(N)=O)Cc2ccccc2)NC1=O (single isomer, unassigned) [Compd 39]
> 500	CCCCCCCCCCCCCCCC(=O)NCCCCCC(=O)NCCCC[C@@H]1NC(=O)[C@@H]2CCCN2C(=O)[C@H](C(c2ccccc2)c2ccccc2)NC(=O)[C@H](Cc2c[nH]cn2)NC(=O)[C@H]([C@@H](C)O)NC(=O)[C@@H](NC(=O)CC(C)C)CCC=CCC[C@@H](C(=O)N[C@H](CC(=O)N[C@H](CCCCN)C(N)=O)Cc2ccccc2)NC1=O (single isomer, unassigned) [Compd 40]
> 500	CCCCCCCCCCCCCCCC(=O)NCCCCCC(=O)NCCCC[C@H](NC(=O)C[C@H](Cc1ccccc1)NC(=O)[C@@H]1CCC=CCC[C@H](NC(=O)CC(C)C)C(=O)N[C@@H]([C@@H](C)O)C(=O)N[C@@H](Cc2c[nH]cn2)C(=O)N[C@@H](C(c2ccccc2)c2ccccc2)C(=O)N2CCC[C@H]2C(=O)N1)C(N)=O (single isomer, unassigned) [Compd 86]
> 500	CCCCCCCCCCCCCCCC(=O)NCCCCCC(=O)NCCCC[C@H](NC(=O)C[C@H](Cc1ccccc1)NC(=O)[C@@H]1CCC=CCC[C@H](NC(=O)CC(C)C)C(=O)N[C@@H]([C@@H](C)O)C(=O)N[C@@H](Cc2c[nH]cn2)C(=O)N[C@@H](C)C(=O)N2CCC[C@H]2C(=O)N[C@@H](C)C(=O)N[C@@H]([C@@H](C)CC)C(=O)N1)C(=O)N[C@H](CCCCN)C(N)=O [Compd 43] (Isovaleryl-[Hag]THAPAI[Hag][β3hF]K([Ahx-Palmitoyl])[dK]-NH2; staple 1-8)
10 to 100	CCCCCCCCCCCCCCCC(=O)NCCCCCC(=O)NCCCC[C@H](NC(=O)C[C@H](Cc1ccccc1)NC(=O)[C@@H]1CCC=CCC[C@H](NC(=O)CC(C)C)C(=O)N[C@@H]([C@@H](C)O)C(=O)N[C@@H](Cc2c[nH]cn2)C(=O)N[C@@H](C(c2ccccc2)c2ccccc2)C(=O)N[C@@H](C)C(=O)N[C@@H](C)C(=O)N[C@@H]([C@@H](C)CC)C(=O)N1)C(=O)N[C@H](CCCCN)C(N)=O [Compd 44] (Isovaleryl-[Hag]TH[Dip]AAI[Hag][β3hF]K([Ahx-Palmitoyl])[dK]-NH2; staple 1-8)
> 500	CCCCCCCCCCCCCCCC(=O)NCCCCCC(=O)NCCCC[C@H](NC(=O)C[C@H](Cc1ccccc1)NC(=O)[C@@H]1CCC=CCC[C@H](NC(=O)CC(C)C)C(=O)N[C@@H](CC(C)(C)C)C(=O)N[C@@H](Cc2c[nH]cn2)C(=O)N[C@@H](C(c2ccccc2)c2ccccc2)C(=O)N2CCC[C@H]2C(=O)N[C@@H](C)C(=O)N[C@@H]([C@@H](C)CC)C(=O)N1)C(=O)N[C@H](CCCCN)C(N)=O [Compd 58] (Isovaleryl-[Hag][tBuAla]H[Dip]PAI[Hag][β3hF]K([Ahx-Palmitoyl])[dK]-NH2; staple 1-8)
> 500	CCCCCCCCCCCCCCCC(=O)NCCCCCC(=O)NCCCC[C@H](NC(=O)C[C@H](Cc1ccccc1)NC(=O)[C@@H]1CCC=CCC[C@H](NC(=O)CC(C)C)C(=O)N[C@@H]([C@@H](C)O)C(=O)N[C@@H](CC(C)(C)C)C(=O)N[C@@H](C(c2ccccc2)c2ccccc2)C(=O)N2CCC[C@H]2C(=O)N[C@@H](C)C(=O)N[C@@H]([C@@H](C)CC)C(=O)N1)C(=O)N[C@H](CCCCN)C(N)=O [Compd 59] (Isovaleryl-[Hag]T[tBuAla][Dip]PAI[Hag][β3hF]K([Ahx-Palmitoyl])[dK]-NH2; staple 1-8)
